Reference: patent publication US20110009374A1, “METHOD OF WOUND HEALING AND SCAR MODULATION” (priority 2009, published 2011)
Where “and” joins values, the source holds several entries; their conditions need not be identical. Equal entries are not always repeated.

Assays:
Assay type in all cases: in vivo
[1] = system: linear subcutaneous-deep incision wounds in hairless mice (Skh:HR-1); assay: Example 2 scar evaluation by Vancouver Scale at day 21 and gross evaluation; parameters: key: Vancouver Scale subscores (18-point total), mean of two observers
Protocol: (§1) Twelve hairless mice (Skh:HR-1) with an average weight of […] were treated topically with a local anesthetic (LMX-4, Ferndale Laboratories, Inc.) for 30 minutes prior to wounding for dermal anesthesia. Antiseptics were not used because of the possibility of their local effect on the wound healing process.
(§2) The mice were subdivided into two groups, A and B. Each mouse received three linear, 10 mm long, subcutaneous-deep incision wounds parallel to the spinal column. The first incision was near the spinal column on the left side (C), one at a position 10 mm away from the first on the same side (L), and one on the right side about 10 mm from the center line or spinal column (R). All incision wounds were made with a 0.3 mm blade surgical blade. Because of the loose nature of the hairless mouse epidermis the wounds spread to as wide as 3 mm. Each mouse was housed separately.
(§3) 1) 0.25% Formulations: water (79.75%), ethanol (18%), methylprednisolone acetate or prednisolone acetate (0.25%), and ammonium acryloyldimethyltaurate/VP copolymer (2%).
(§4) 2) 1% Formulations: water (79%), ethanol (18%), methylpredinisolone acetate or prednisolone acetate (1%), and ammonium acryloyldimethyltaurate/VP copolymer (2%).
(§5) In Group A, wounds C and L were treated with the 0.25% and 1% methylprednisolone acetate formulations, respectively, and wound R was the control or untreated wound. In Group B, wounds C and L were treated with the 0.25% and 1% prednisolone acetate formulations, respectively and wound R was the control. The study drug (methylprednisolone or prednisolone) was applied to the treatment wounds twice daily (8 hours apart) beginning 1 h after the incision on day 1 and continuing through day 21. The wounds were far enough apart to avoid the spread of the treatment gel from the treated wound to the control wound. No additional physical barrier, such as a gauze bandage, was used.
Each mouse was kept in its cage during days 14-21. On day 21, each scar was assessed according to the Vancouver Scale (18 points) under magnification by two observers independently and the scores were averaged and recorded. Progressive re-epithelializaton of the wound surface from the wound edges continued until the wound surface was completely closed at a time between days 14 and 21.

[2] = system: linear subcutaneous-deep incision wounds in hairless mice (Skh:HR-1); assay: Example 2 wound healing in hairless mice: healing evaluation by wound width
Protocol: as §1, §2, §3, §4, §5
Healing evaluation was made by measuring wound closure, which was assessed by the width of the wound. The width of each scar was measured with digital calipers at the widest point while subject was lying motionless, on its ventral side. Digital photographs were taken to record the healing process. The mean width of wound was recorded on days 1, 3, 5, 7, 9, 11, 13, 15, 17, 19 and 21.

[3] = system: linear subcutaneous-deep wounds in hairless mice (Skh:HR-1); assay: Example 1 scar evaluation by Vancouver Scale at day 21; details: 1% formulation
Protocol: (§6) Twelve hairless mice (Skh:HR-1) with an average weight of […] were treated topically with a local anesthetic (LMX-4, Ferndale Laboratories, Inc.) for dermal anesthesia for 30 minutes prior to wounding. Antiseptics were not used because of the possibility of their local effect on the wound healing process.
(§7) Two linear subcutaneous-deep wounds were made bilaterally with a 0.3 mm blade surgical knife on the dorsal side of each subject approximately 10 mm on each side of the spinal column. Because of the loose nature of the hairless mouse epidermis the wounds spread to as wide as 3 mm. Each mouse was housed separately.
(§8) The test formulation comprised the following ingredients (by weight percent): water (79%), ethanol (18%), prednisolone acetate (1%), and ammonium acryloyldimethyltaurate/VP copolymer (2%).
(§9) In each test subject, the right wound was assigned to a control (i.e., no treatment) and the left would was treated with a the 1% prednisolone acetate test formulation, applied twice daily (8 hours apart) beginning 1 h after the incision on day 1 and continuing through day 21. The wounds were about 20 mm apart to prevent the treatment gel from migrating from the treatment wound to the control wound.
Each mouse was kept in its cage during days 14-21. On day 21, each scar was assessed according to the Vancouver Scale (18 points) under magnification by two observers independently and the scores were averaged and recorded. Progressive re-epithelialization of the wound surface from the wound edges continued until the wound surface was completely closed at a time between days 14 and 21.

[4] = system: linear subcutaneous-deep wounds in hairless mice (Skh:HR-1); assay: Example 1 wound healing in hairless mice: healing evaluation by wound width; details: for Scar Width at widest margin: individual subject, 1% formulation topically twice daily; for Scar Width at widest margin / Scar Width at widest margin, Mean: L wound; for Scar Width at widest margin, Mean: mean of 12 subjects, 1% formulation twice daily
Protocol: as §6, §7, §8, §9
Healing evaluation was made by measuring wound closure, which was assessed by the width of the wound. Evaluation was made on days 1, 3, 5, 10, and 14. The width of each scar was measured with digital calipers at the widest point while subject was lying motionless on its ventral side. Digital photographs were taken to record healing process.

[5] = Day 21, individual subject, L wound
[6] = Day 21, mean of 12 subjects, L wound

CC(=O)OCC(=O)[C@@]1(O)CC[C@H]2[C@@H]3CCC4=CC(=O)C=C[C@]4(C)[C@H]3[C@@H](O)C[C@@]21C [prednisolone acetate]
Mean Vancouver Scale Scar Scoring, Height ([1]; wound C, 0.25% formulation): 0
Mean Vancouver Scale Scar Scoring, Pigmentation ([1]; wound C, 0.25% formulation): 1
Mean Vancouver Scale Scar Scoring, Pliability ([1]; wound C, 0.25% formulation): 2.5
Mean Vancouver Scale Scar Scoring, Vascularity ([1]; wound C, 0.25% formulation): 0
Mean Vancouver Scale Scar Scoring, Height ([1]; wound L, 1% formulation): 0
Mean Vancouver Scale Scar Scoring, Pigmentation ([1]; wound L, 1% formulation): 1
Mean Vancouver Scale Scar Scoring, Pliability ([1]; wound L, 1% formulation): 1.0
Mean Vancouver Scale Scar Scoring, Vascularity ([1]; wound L, 1% formulation): 0
Mean Wound Width at Widest Margin ([2]; Day 1, wound C, 0.25% formulation twice daily): 3.1 ± 0.3 mm
Mean Wound Width at Widest Margin ([2]; Day 1, wound L, 1% formulation twice daily): 3.0 ± 0.2 mm
Mean Wound Width at Widest Margin ([2]; Day 3, wound C, 0.25% formulation twice daily): 2.5 ± 0.2 mm
Mean Wound Width at Widest Margin ([2]; Day 3, wound L, 1% formulation twice daily): 2.4 ± 0.3 mm
Mean Wound Width at Widest Margin ([2]; Day 5, wound C, 0.25% formulation twice daily): 1.7 ± 0.2 mm
Mean Wound Width at Widest Margin ([2]; Day 5, wound L, 1% formulation twice daily): 1.8 ± 0.4 mm
Mean Wound Width at Widest Margin ([2]; Day 7, wound C, 0.25% formulation twice daily): 1.4 ± 0.2 mm
Mean Wound Width at Widest Margin ([2]; Day 7, wound L, 1% formulation twice daily): 1.5 ± 0.2 mm
Mean Wound Width at Widest Margin ([2]; Day 9, wound C, 0.25% formulation twice daily): 1.1 ± 0.2 mm
Mean Wound Width at Widest Margin ([2]; Day 9, wound L, 1% formulation twice daily): 1.0 ± 0.2 mm
Mean Wound Width at Widest Margin ([2]; Day 11, wound C, 0.25% formulation twice daily): 0.6 ± 0.2 mm
Mean Wound Width at Widest Margin ([2]; Day 11, wound L, 1% formulation twice daily): 0.6 ± 0.2 mm
Mean Wound Width at Widest Margin ([2]; Day 13, wound C, 0.25% formulation twice daily): 0.1 ± 0.2 mm
Mean Wound Width at Widest Margin ([2]; Day 13, wound L, 1% formulation twice daily): 0.2 ± 0.3 mm
Mean Wound Width at Widest Margin ([2]; Day 15, wound C, 0.25% formulation twice daily): 0 mm
Mean Wound Width at Widest Margin ([2]; Day 15, wound L, 1% formulation twice daily): 0 mm
Mean Wound Width at Widest Margin ([2]; Day 17, wound C, 0.25% formulation twice daily): 0 mm
Mean Wound Width at Widest Margin ([2]; Day 17, wound L, 1% formulation twice daily): 0 mm
Mean Wound Width at Widest Margin ([2]; Day 19, wound C, 0.25% formulation twice daily): 0 mm
Mean Wound Width at Widest Margin ([2]; Day 19, wound L, 1% formulation twice daily): 0 mm
Mean Wound Width at Widest Margin ([2]; Day 21, wound C, 0.25% formulation twice daily): 0 mm
Mean Wound Width at Widest Margin ([2]; Day 21, wound L, 1% formulation twice daily): 0 mm
Averaged Vancouver Scale Scar Scoring, Height [3, 5]: 0
Averaged Vancouver Scale Scar Scoring, Pigmentation [3, 5]: 1.5 and 1 (11×)
Averaged Vancouver Scale Scar Scoring, Pliability [3, 5]: 1 (10×) and 1.5 (2×)
Averaged Vancouver Scale Scar Scoring, Vascularity [3, 5]: 1 (2×) and 0 (10×)
Averaged Vancouver Scale Scar Scoring, Height, Mean [3, 6]: 0
Averaged Vancouver Scale Scar Scoring, Pigmentation, Mean [3, 6]: 1.1
Averaged Vancouver Scale Scar Scoring, Pliability, Mean [3, 6]: 1.1
Averaged Vancouver Scale Scar Scoring, Vascularity, Mean [3, 6]: 0.16
global assessment of scars by Vancouver Scale, treated vs control ([3]; day 21): significant difference in pliability, pigmentation and vascularity
pigmentation vs control ([3]; day 21): marginally better
vascularity in treated areas ([3]; day 21): returned to virtually normal
redness and marginal line of treated wounds vs control ([4]; 1% formulation): less redness and a finer marginal line
scars healed with some degree of contracture ([4]; 1% formulation, number of scars out of 12): 8 out of the 12
signs of infection ([4]; 1% formulation, treated and control wounds): Neither the control nor the treated wounds showed signs of infection
Scar Width at widest margin ([4]; Day 1): 3.0 mm (2×) and 2.6 mm and 2.9 mm (4×) and 2.7 mm (3×) and 2.8 mm (2×)
Scar Width at widest margin, Mean ([4]; Day 1): 2.8 mm
Scar Width at widest margin ([4]; Day 3): 1.9 mm (3×) and 1.8 mm (4×) and 1.4 mm and 1.5 mm and 1.7 mm (3×)
Scar Width at widest margin, Mean ([4]; Day 3): 1.8 mm
Scar Width at widest margin ([4]; Day 5): 1.7 mm (3×) and 1.6 mm (3×) and 1.1 mm and 1.3 mm and 1.4 mm (3×) and 1.5 mm
Scar Width at widest margin, Mean ([4]; Day 5): 1.5 mm
Scar Width at widest margin ([4]; Day 10): 0.6 mm (4×) and 0.2 mm and 0.4 mm (2×) and 0.5 mm (3×) and 0.3 mm and 0.7 mm
Scar Width at widest margin, Mean ([4]; Day 10): 0.5 mm
Scar Width at widest margin ([4]; Day 14): 0.2 mm (2×) and 0.0 mm (10×)
Scar Width at widest margin, Mean ([4]; Day 14): 0 mm and 0.0 mm
mean difference in wound width, treated vs control ([4]; day 3, 1% formulation): 0.4 mm
mean difference in wound width, treated vs control ([4]; day 5, 1% formulation): 0.4 mm
mean difference in wound width, treated vs control ([4]; day 7, 1% formulation): 0.5 mm
mean difference in wound width, treated vs control ([4]; day 10, 1% formulation): 0.5 mm
mean difference in wound width, treated vs control ([4]; day 14, 1% formulation): 0.7 mm
retarding of healing phases ([4]; evaluation and healing period, 1% formulation): No apparent retarding of any phase of healing
contracture of healed epidermal layer vs control ([4]; evident by day 5, 1% formulation): less contracture
gross appearance of treated wounds (crusting, infiltrates, exudates) ([4]; first 14 days, 1% formulation): clear of crusting, infiltrates, and exudates
healing vs control group by wound width ([4]; over a 14-day period, 1% formulation): faster than the control group
